We go through ten molecules from ChEMBL document CHEMBL1201862, “PubChem BioAssay data set” (2004).

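Where inhibition never reached the appropriate level, the endpoint shown equals the highest concentration tested. Otherwise, values were interpolated linearly from a five-concentration, 48-hour dose response in 96-well plates. The concentration for 50% growth inhibition is given as GI50.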 Activity calls are given as the source filed them. Cut-off read from the data, not from the text of the source: active = GI50 up to about 1.1 µM and inactive = higher. Where a SMILES comes first, the peptide text is derived from it. Square brackets hold non-standard residues; d marks the D form. Peptide text beside a SMILES is read from it.

What all share (experiment): NCI tumour cell line growth inhibition, 48 h
The test system of assay [1] is HCT-15.
Assay [2] has as its system UO-31.
Assay [3] relates to SK-OV-3.
Assay [4] relates to SNB-19.
Assay [5] relates to A498.
Assay [6] deals with HOP-92.
Assay [7] has as its system UACC-62.
In assay [8] the test system is OVCAR-4.
Assay [9] deals with Malme-3M.
Assay [10] relates to SN12C.
For assay [11], the system named is SF-295.
Assay [12] concerns HT-29.
Assay [13] relates to SNB-75.
Assay [14] deals with MOLT-4.
Assay [15] relates to UACC-257.
Assay [16] has as its system SK-MEL-5.
For assay [17], the system named is M14.
Assay [18] deals with U-251.
Assay [19] deals with NCI/ADR-RES.
Assay [20] deals with DMS-273.

With `O=Cc1cc([N+](=O)[O-])no1`, the GI50 in assay [1] is 36.8 µM; in assay [2], > 100 µM (inactive); in assay [3], > 100 µM (inactive); in assay [4], 92.9 µM (inactive); in assay [5], > 100 µM (inactive); in [6] it was > 100 µM (inactive). Moreover, the GI50 was 19.7 µM (inactive) in assay [7]; 17.2 µM (inactive) in assay [8]; > 10 µM (inactive) in [9]; 38.9 µM (inactive) in assay [10]; 32.5 µM (inactive) in assay [11]; 23 µM (inactive) in assay [12]. Further, the GI50 in assay [13] is > 100 µM (inactive); in assay [14], 18.7 µM (inactive); in assay [15], 28.5 µM (inactive); in [16] it was 20 µM (inactive); in assay [17], 17.1 µM (inactive); in assay [18] it was 53.3 µM (inactive). Further, in assay [19], the GI50 was 52.4 µM (inactive).
Consider `CN(/N=N/c1[nH]cnc1C(N)=O)C1CCCCC1`, for which the GI50 is above 100 µM in assay [1]; 48.2 µM (inactive) in [3]; > 100 µM (inactive) in assay [4]; > 100 µM (inactive) in assay [5]; 55.1 µM (inactive) in [6]; 61.7 µM (inactive) in assay [7]. Further, the GI50 is 55.1 µM (inactive) in assay [8]; 74.6 µM (inactive) in [9]; > 100 µM (inactive) in assay [10]; 86.7 µM (inactive) in [11]; > 100 µM (inactive) in assay [12]; 34.6 µM (inactive) in assay [13]. For the same molecule, the GI50 was 41.2 µM (inactive) in [20]; 49.1 µM (inactive) in [14]; 62.1 µM (inactive) in assay [15]; > 100 µM (inactive) in [16]; 72.9 µM (inactive) in assay [17]; > 100 µM (inactive) in assay [18].
With `CC(C)C[C@H](NC(=O)[C@H](CC(C)C)NC(=O)[C@@H](Cc1c[nH]c2ccccc12)NC(=O)[C@H](Cc1ccccc1)NC(=O)[C@@H](Cc1c[nH]c2ccccc12)NC(=O)[C@H](CCC(N)=O)NC(=O)[C@@H](CCC(N)=O)NC(=O)[C@@H]1CCCN1C(=O)[C@@H](CCCCN)NC(=O)[C@H]1CCCN1C(=O)[C@H](N)CCCN=C(N)N)C(N)=O` (H-[dR][dP][dK]P[dQ]Q[dW]F[dW]LL-NH2), the GI50 in assay [1] was above 100 µM; in assay [2], > 100 µM (inactive); in [3], > 100 µM (inactive); in [4] it was 44.9 µM (inactive); in assay [5], 32.3 µM (inactive); in assay [6], > 100 µM (inactive). Moreover, the GI50 in assay [7] is > 100 µM (inactive); in [8] it was > 100 µM (inactive); in assay [9] it was > 31.6 µM (inactive); in assay [10], > 100 µM (inactive); in assay [11], 63.5 µM (inactive); in assay [12] it was > 100 µM (inactive). In addition, the GI50 in assay [13] was > 100 µM (inactive); in assay [20] it was > 100 µM (inactive); in assay [14], > 27.4 µM (inactive); in [15] it was > 48.3 µM (inactive); in assay [16], > 100 µM (inactive); in assay [18] it was > 55 µM (inactive). The GI50 in assay [19] was > 100 µM (inactive).
In the case of `O=C1CCc2cc3c(cc21)CC1(Cc2cc4c(cc2C1)CCCC4)C3`, the GI50 in assay [1] is 69 µM; in assay [2], > 100 µM (inactive); in assay [3], 79.4 µM (inactive); in assay [4], 45.1 µM (inactive); in assay [5], 61.5 µM (inactive); in assay [6] it was 0.0489 µM (active). The GI50 in assay [7] is 39.9 µM (inactive); in assay [8] it was 29 µM (inactive); in assay [9], 90.6 µM (inactive); in [10], > 100 µM (inactive); in assay [11], 33.9 µM (inactive); in assay [12], 34.8 µM (inactive). For the same molecule, the GI50 in assay [13] was 14.6 µM (inactive); in assay [14], > 100 µM (inactive); in [15], 35.6 µM (inactive); in [16] it was 24.6 µM (inactive); in assay [17], 30.3 µM (inactive); in assay [18] it was 45.9 µM (inactive). Moreover, the GI50 in [19] is > 100 µM (inactive).
`CCOC(=O)C(Cc1cn(C(C)=O)c2ccccc12)P(=O)(OCC)OCC` (centres undefined): the GI50 in [1] is above 100 µM; in assay [2] it was > 100 µM (inactive); in assay [3], > 100 µM (inactive); in assay [4] it was > 100 µM (inactive); in assay [6], > 100 µM (inactive); in assay [8], > 100 µM (inactive). Further, the GI50 in assay [10], in assay [11], in assay [12], in assay [13], in assay [14] and in assay [15] was > 100 µM (inactive) in each case. For the same molecule, the GI50 in assay [16], in [17], in assay [18] and in [19] was > 100 µM (inactive) throughout.
Turning to `Clc1ccc(/N=c2\oc3ccccc3cc2-c2nc3ccccc3[nH]2)c(Cl)c1`, the GI50 in assay [1] was above 100 µM; in assay [2], > 100 µM (inactive); in assay [3] it was 49.9 µM (inactive); in assay [4], > 100 µM (inactive); in assay [6], 43.6 µM (inactive); in assay [7], 24.6 µM (inactive). Further, the GI50 in assay [8], in [9], in assay [11], in [12], in [14] and in [15] was > 100 µM (inactive) throughout. Moreover, the GI50 in [17] and in assay [19] was > 100 µM (inactive) each time.
With `O=C(O)c1cc2c(ncc3c(=O)n(-c4ccccc4)[nH]c32)s1`, the GI50 in assay [1] is above 100 µM; in assay [2] it was > 100 µM (inactive); in assay [3], > 100 µM (inactive); in assay [4] it was > 10 µM (inactive); in assay [6], > 100 µM (inactive); in [7], > 100 µM (inactive). In addition, the GI50 in assay [8], in [9], in assay [10], in [12], in [20] and in assay [14] was > 100 µM (inactive) throughout. The GI50 in assay [17] and in assay [18] was > 100 µM (inactive) each time.
With `O=C(CCN1CCOCC1)C(=Cc1ccccc1)C(=O)CCN1CCOCC1`, the GI50 in [1] was 2.1 µM; in assay [2] it was 12.3 µM (inactive); in assay [3], 16.6 µM (inactive); in assay [4], 14.9 µM (inactive); in [5], 17.3 µM (inactive); in assay [6] it was 2.11 µM (inactive). Moreover, the GI50 in [7] was 2.31 µM (inactive); in assay [8], 5.28 µM (inactive); in assay [9], 2.45 µM (inactive); in assay [10], 2.96 µM (inactive); in assay [11] it was 15.6 µM (inactive); in [12], 2.98 µM (inactive). Besides, the GI50 was 15.5 µM (inactive) in [13]; 8.65 µM (inactive) in [20]; 1.32 µM (inactive) in [14]; 1.79 µM (inactive) in assay [15]; 7.08 µM (inactive) in assay [16]; 14.1 µM (inactive) in [18]. Further, in assay [19], the GI50 is 2.46 µM (inactive).
`CN(C)c1cccc(OC(=O)NCCCl)c1`: the GI50 in [1] was above 100 µM; in assay [2], > 100 µM (inactive); in [3], > 100 µM (inactive); in assay [4] it was > 100 µM (inactive); in assay [5] it was > 100 µM (inactive); in [6], 65.3 µM (inactive). For the same molecule, the GI50 is > 100 µM (inactive) in assay [7]; > 100 µM (inactive) in assay [8]; > 100 µM (inactive) in [10]; > 100 µM (inactive) in [11]; > 100 µM (inactive) in [12]; 63.8 µM (inactive) in assay [13]. Also, the GI50 in assay [20], in [14], in assay [15], in [16], in [18] and in assay [19] was > 100 µM (inactive) in each case.
With `CC1NC(=O)CNC(=O)CNC(=O)C(Cc2ccc(O)cc2)NC(=O)C(C(C)C)NC(=O)C(C)NC1=O` (centres undefined) (cyclo(GGAAVY); configuration not given here), the GI50 in assay [1] was above 100 µM; in assay [2], > 100 µM (inactive); in assay [3], > 100 µM (inactive); in assay [4] it was > 100 µM (inactive); in assay [5], > 100 µM (inactive); in assay [6] it was 50.8 µM (inactive). Besides, the GI50 was > 100 µM (inactive) in assay [7]; 10.7 µM (inactive) in assay [8]; > 100 µM (inactive) in assay [10]; > 100 µM (inactive) in assay [11]; > 100 µM (inactive) in assay [12]; > 100 µM (inactive) in [13]. For the same molecule, the GI50 in assay [20], in [14], in [15], in assay [16], in assay [18] and in assay [19] was > 100 µM (inactive) throughout.
